Experimental findings from the NIST ThermoML archive (doi:10.1016/j.fluid.2008.09.026) are described below.

± gives the expanded uncertainty stated by the source.

For this data set the following is noted: Liquid, Ebulliometric method (Recirculating still).

In the case of `CCCCCCC` [heptane], the “vapor or sublimation pressure” value stood at 60 ± 0.1 kPa (354.72 K), 80 ± 1 kPa (363.74 K) and 100 ± 0.1 kPa (371.2 K).

With `CC(C)OCCO` [2-isopropoxyethanol], the “vapor or sublimation pressure” value is, setting by setting: (398.12 K) 60 ± 0.1 kPa; (407.13 K) 80 ± 0.1 kPa; (414.21 K) 100 ± 0.1 kPa.

For `CCCCCC` [hexane], the “vapor or sublimation pressure” value (326.11 K) was 60 ± 0.1 kPa, the “vapor or sublimation pressure” value (334.61 K) was determined as 80 ± 0.1 kPa and the “vapor or sublimation pressure” value (341.48 K) is 100 ± 0.1 kPa.

By vapor or sublimation pressure is commonly meant the equilibrium pressure above the liquid or solid.
